How the values were obtained:
Cowpox = format: cell-based
Vaccinia = format: cell-based

Compound `Nc1ccn(C[C@@H](CO)OCP(=O)(O)O)c(=O)n1` [CDV] has a PR CDV EC90 (Cowpox) of 18.1 µg/mL and a PR CDV EC90 (Vaccinia) of 17 µg/mL.
